{
  "source": "patent US20070161542A1",
  "about": "“Ptb1b photoprobes” (priority 2003, published 2007)",
  "origin": "cited, not measured here",
  "system": "PTP1B and TCPTP1B",
  "conditions": "reference (23); cited from earlier work",
  "note": "Non-standard residues stand in square brackets, D forms with d. Residues, ends and D or L forms follow the SMILES beside them. *: point of attachment. F2Pmp = N[C@@H](Cc1ccc(C(F)(F)P(=O)(O)O)cc1)C(=O)O; Bz = O=C(c1ccccc1)*",
  "data": [
    {"compound": "NC(=O)[C@H](Cc1ccc(C(F)(F)P(=O)(O)O)cc1)NC(=O)[C@H](Cc1ccc(C(F)(F)P(=O)(O)O)cc1)NC(=O)[C@H](CCC(=O)O)NC(=O)c1ccccc1", "note": "[BzN-EJJ-AMIDE, N-benzoyl-L-glutamyl-[4-phosphono(difluoromethyl)]-L-phenylalanyl-[4-phosphono(difluoromethyl)]-L-phenylanalininamide] (Bz-Glu-[F2Pmp]-[F2Pmp]-NH2)", "values": [
      {"measurement": "inhibitor character", "result": "selective, potent inhibitor"}
    ]}
  ]
}
